Reference: patent US20260378560A1, “APPROACHES TO DESIGNING AND PERFORMING COMPRESSED BIOLOGICAL EXPERIMENTS AND SYSTEMS FOR IMPLEMENTING THE SAME” (EXVIVO LABS INC., priority 2023, published 2026)

Legend:
CCRF-CFM = assay: ATP-based luminescence cell viability (CellTiter Glo), drug response score, CCRF-CFM; set-up: scale not given here; conditions: Target compression
Source text: As part of a screen, a drug could be screened at different concentrations ranging from a lowest concentration to a highest concentration. In such a scenario, multiple data structures may be obtained by the screening platform 210. […] With these multiple data structures, the analysis module 218 can generate a dose-response curve that describes the magnitude of the response of the biological target, as a function of exposure to different concentrations of the drug. Further, the analysis module 218 can calculate a metric that is indicative of the response of the biological target. In the event that the biological target is one of multiple biological targets that are introduced to the pools of drugs, the metric can be used by the screening platform 210 to better understand the relative magnitude of responses. One example of a metric is drug-response score (“DRS”). DRS can be calculated as a continuous function of multiple parameters of the non-linear dose-response curve, including the slope at the half-maximal effective concentration (also called “EC50”) and the top and bottom asymptotes of the dose-response curve. DRS can be calculated as follows: […]
where y is a continuous function of the variable dose x, a is the maximal response (i.e., the top asymptote of the curve), b is the slope of the curve, c is the IC50 (i.e., half-maximal inhibitory concentration), and d is the minimal response (i.e., the bottom asymptote of the curve). Other examples of metrics include those output by sigmoidal and Hill slide functions that, like DRS, incorporate multiple aspects of the dose-response curve into a continuous function.
Total cell viability was measured for each cancer cell line using an Adenosine TriPhosphate (“ATP”) assay, and more specifically an ATP-based luminescence assay (i.e., CellTiter Glo). Each cancer drug was screened at multiple concentrations ranging from one nanomolar (nM) to ten micromolar (UM) in order to generate a dose-response curve and calculate a drug response score (“DRS”) for each cancer cell line. The DRS was calculated as a continuous function of multiple parameters of the non-linear dose-response curve, including the slope at the half-maximal effective concentration (also called “EC50”) and the top and bottom asymptotes of the dose-response curve. […] After total cell viability was measured and DRS was calculated, the DRS of each cancer cell line in the pool was deconvolved for each cancer drug.
DRS for these anchor cell lines are bolded and italicized. Anchors can be identified based on frequency of the cell lines in pools with high DRS versus low DRS. At a high level, an anchor is predicted to be the cell line with the lowest individual DRS. In order to deconvolute individual cell line DRS values from pool DRS values, the anchor can start with an assumed DRS value of zero. Each pool can then be expressed as a polynomial of variables (cell lines in the pool) and constants (DRS value of the pool). The DRS value of each cell line can then be solved for using the anchor value and overlapping polynomial expressions. When multiple values are calculated for the final target solved from the polynomials, then the anchor has a non-zero value that can be determined based on the difference in the calculated value of the final target.
Each pool represented a co-culture of three cell lines (“Target Compression”).

REH = assay: ATP-based luminescence cell viability (CellTiter Glo), drug response score, REH; set-up: scale not given here; conditions: for DRS from deconvolution: Sample compression, 5 Pick 3 pools; for drug response score (DRS): screened individually (Compress: None)
MOLT-4 [1] = assay: ATP-based luminescence cell viability (CellTiter Glo), drug response score, MOLT-4
MOLT-4 [2] = assay: Cell viability (CellTiter Glo), compressed perturbation pools with informed pool design, SUM-based deconvolution, MOLT-4; set-up: scale not given here
Method: Total cell viability was measured for each sample using an ATP-based luminescence assay (i.e., CellTiter Glo). Each cancer drug was then screened at multiple concentrations ranging from one nM to ten μM in order to generate a dose-response curve and calculate a DRS for each cancer cell line.
Each cancer drug was cultured with target cells individually. At the end of the screen, samples were either analyzed individually or compressed into pools for analysis. The library was compressed alphabetically into ten cohorts, each of which contained seven cancer drugs present in three out of the seven pools, as shown in Table VII. Said another way, the screening platform 210 generated a “7 pick 3” compressed library by assigning the cancer drugs among different pools. […] The library was also compressed into ten cohorts with pools designed based on information known about each cancer drug, as shown in Table VIII. After cell viability measurement and DRS calculation, the DRS of each cancer drug in the samples generated based on the pools were deconvoluted and compared to the DRS for each cancer drug measured individually.
In parallel to the exemplary sample compression screen covered in Table VII, perturbations were compressed into pools and then screened. The pools were designed using drug class as a feature with two compression rules (or simply “rules”). The first rule required that drugs from the same class be separated into different cohorts (i.e., mutually exclusive groups of pools). The second rule separated PI3K pathway inhibitors from MAPK pathway inhibitors, as inhibiting these pathways in parallel is known to be synergistic but has not been clinically effective due to dose-limiting toxicities. A benefit of compressing perturbations is the ability to measure additive, antagonistic, and synergistic effects between drugs in the same pool. However, these effects can negatively impact deconvolution of individual drug effects. Therefore, combinations of drugs for which evidence of clinical toxicity exists can be assigned to different pools in accordance with an informed pooling operation. As new preclinical or clinical evidence of toxic combinations becomes available, the rules implemented by the screening platform 210—and more specifically, its algorithm for compressing members of a library—can be updated accordingly.
In SUM-based deconvolution, an assumption of additivity is used to quantify the individual effects of each perturbation on each target. Additivity implies that each perturbation effect on each target is positively contributing to the overall effect measured for that pool. This is an accurate assumption for certain experiments, such as when targets or samples are compressed. When targets are pooled—or when samples containing different targets are pooled—the effect of each perturbation on each individual target is diluted. In other words, each perturbation has an isolated effect on a target in culture, and the sum total of the isolated effects are measured when pooled. Therefore, SUM-based deconvolution breaks down the sum total measured for a pool and assigns estimated fractional effects to each compressed perturbation or target in the pool. The screening platform 210 used SUM-based deconvolution for all target and sample compression experiments described above.
As mentioned above, SUM-based deconvolution uses the overlapping pool design to identify relative relationships and ranges for the individual effects of each perturbation. When the overlapping pool design is not sufficient to solve for the polynomials representing perturbation effects, an anchor perturbation can be identified by the screening platform 210 based on rank order and assigned an effect size of zero. The anchor perturbation may be the lowest ranked perturbation in the rank order. This then enables the screening platform 210 to solve for the polynomials for the remaining perturbations.

[3] = MOLT-4, Sample compression, 5 Pick 3 pools
[4] = MOLT-4, Target compression, 5 Pick 3 pools
[5] = MOLT-4, Target compression, 6 Pick 3 pools
[6] = MOLT-4, Target compression, 7 Pick 3 pools

Question: With `COc1c(OCCCN2CCOCC2)ccc2c1N=C(NC(=O)c1cnc(N)nc1)N1CCN=C21` [Copanlisib] as the compound, how does the DRS from deconvolution (CCRF-CFM; 5 Pick 3 pools) read?
Answer: 15.66

Question: What about the DRS from deconvolution (CCRF-CFM; 6 Pick 3 pools) of the same compound?
Answer: 15.88

Question: What about the DRS from deconvolution (CCRF-CFM; 7 Pick 3 pools) of the same compound?
Answer: 15.03

Question: What about the DRS from deconvolution (REH) of the same compound?
Answer: 12.99

Question: And the “drug response score (DRS)” value (REH)?
Answer: 13.24

Question: And the DRS from deconvolution (MOLT-4 [1]; [3])?
Answer: 12.24

Question: And the DRS from deconvolution (MOLT-4 [1]; [4])?
Answer: 11.02

Question: And the DRS from deconvolution (MOLT-4 [1]; [5])?
Answer: 8.72

Question: And the DRS from deconvolution (MOLT-4 [1]; [6])?
Answer: 9.83

Question: How did the “DRS, MOLT-4, SUM” value (MOLT-4 [2]) turn out when `COc1cc2ncnc(Nc3ccc(F)c(Cl)c3)c2cc1OCCCN1CCOCC1` [Gefitinib] was run?
Answer: 2.22

Question: Which results are given for `N#Cc1ccnc(N2C(=O)CC[C@H]2C(=O)N(c2cncc(F)c2)[C@H](C(=O)NC2CC(F)(F)C2)c2ccccc2Cl)c1` [Ivosidenib]?
Answer: DRS from deconvolution (CCRF-CFM; 5 Pick 3 pools): 1.15; DRS from deconvolution (CCRF-CFM; 6 Pick 3 pools): 0.89; DRS from deconvolution (CCRF-CFM; 7 Pick 3 pools): 1.01; DRS from deconvolution (REH): 0.48; drug response score (DRS) (REH): 0.60; DRS from deconvolution (MOLT-4 [1]; [3]): 0.06; DRS from deconvolution (MOLT-4 [1]; [4]): 0.21; DRS from deconvolution (MOLT-4 [1]; [5]): 0.30; DRS from deconvolution (MOLT-4 [1]; [6]): 0.22

Question: With `C=CC(=O)Nc1cc(Nc2nccc(-c3cn(C)c4ccccc34)n2)c(OC)cc1N(C)CCN(C)C` [Osimertinib] as the compound, how does the “DRS, MOLT-4, SUM” value (MOLT-4 [2]) read?
Answer: 0.54

Question: For `Cc1[nH]c2ccccc2c1CCNCc1ccc(/C=C/C(=O)NO)cc1` [Panobinostat], which DRS from deconvolution (CCRF-CFM; 5 Pick 3 pools) is on record?
Answer: 19.98

Question: What about the DRS from deconvolution (CCRF-CFM; 6 Pick 3 pools) of the same compound?
Answer: 16.57

Question: And the DRS from deconvolution (CCRF-CFM; 7 Pick 3 pools)?
Answer: 18.55

Question: And the DRS from deconvolution (REH)?
Answer: 12.17

Question: And the “drug response score (DRS)” value (REH)?
Answer: 12.60

Question: What about the DRS from deconvolution (MOLT-4 [1]; [3]) of the same compound?
Answer: 14.56

Question: And the DRS from deconvolution (MOLT-4 [1]; [4])?
Answer: 15.32

Question: What about the DRS from deconvolution (MOLT-4 [1]; [5]) of the same compound?
Answer: 15.84

Question: And the DRS from deconvolution (MOLT-4 [1]; [6])?
Answer: 14.94

Question: Which results are given for `CC1(C)CCC(CN2CCN(c3ccc(C(=O)NS(=O)(=O)c4ccc(NCC5CCOCC5)c([N+](=O)[O-])c4)c(Oc4cnc5[nH]ccc5c4)c3)CC2)=C(c2ccc(Cl)cc2)C1` [Venetoclax]?
Answer: DRS from deconvolution (CCRF-CFM; 5 Pick 3 pools): 0.28; DRS from deconvolution (CCRF-CFM; 6 Pick 3 pools): 1.51; DRS from deconvolution (CCRF-CFM; 7 Pick 3 pools): 1.07; DRS from deconvolution (REH): 1.15; drug response score (DRS) (REH): 3.80; DRS from deconvolution (MOLT-4 [1]; [3]): 1.26; DRS from deconvolution (MOLT-4 [1]; [4]): 0.87; DRS from deconvolution (MOLT-4 [1]; [5]): 2.79; DRS from deconvolution (MOLT-4 [1]; [6]): 2.98; DRS, MOLT-4, SUM (MOLT-4 [2]): 2.44
